Laboratory results as given in patent US20220378706A1, “PHARMACEUTICAL COMPOSITION COMPRISING PDE9 INHIBITOR” (Eisai R&D Management Co., Ltd., priority 2017, published 2022).
Like-named read-outs stand apart in the source and are kept apart here.

Test: Single dose clinical study: plasma Compound A pharmacokinetics
Type: in vivo, human
Conditions: human, plasma
Experimental: This was a single center, single dose, randomized, double blind, placebo controlled study in healthy subjects. It consisted of 4 parts: Parts A, B, C, and D. Each of the four study parts had 2 phases: Prerandomization Phase and Randomization Phase. The Prerandomization Phase lasted up to 30 days and consisted of a Screening Period and a Baseline Period, during which each subject's study eligibility was determined and baseline assessments were performed.
In Part A, there were 8 sequential cohorts of healthy adult subjects (18-50 years of age). Subjects were randomly assigned to Compound A or placebo in a ratio of 6:2, respectively. Subjects in the Compound A cohorts were treated with single ascending doses of 10, 25, 50, 100, 200, 400, 800, or 1200 mg.
In Part B, there were 4 cohorts of healthy adult subjects (18-50 years of age). There were 8 subjects in Cohort 1, with 6 subjects randomly assigned to receive single doses of Compound A (400 mg) and 2 subjects randomly assigned to receive placebo. There were 7 subjects in Cohort 2 and Cohort 3, each with 6 subjects randomly assigned to receive single doses of Compound A (100 and 200 mg, respectively) and 1 subject randomly assigned to receive placebo. The dose of 100 mg selected in Cohort 2 was based on preliminary analysis of Cohort 1 data; this dose was predicted from PK/PD modeling to achieve a sustained CSF cGMP increase from baseline of approximately 200% when administered to steady state, and thereby provided a potentially therapeutic dose for further evaluation in future studies. There were 7 subjects in Cohort 4, with 6 subjects randomly assigned to receive a single dose of Compound A (50 mg [n=3] or 75 mg [n=3]) and 1 subject randomly assigned to receive placebo. The doses for Cohorts 3 and 4 were selected based on PK/PD modeling of the data in Cohorts 1 and 2.
Subjects in Cohort 2 who had received Compound A 100 mg or placebo under fasted conditions (1st Treatment Period) also participated in an evaluation of food effect on the PK of Compound A (2nd Treatment Period). After a washout period of at least 13 days (or 5 half-lives of Compound A, whichever was longer), subjects were admitted to the clinic for baseline assessments (2nd Baseline Period) and then received a single dose of the same treatment (Compound A 100 mg or placebo) after consuming a high fat and high calorie meal over 30 minutes. Blood PK samples were collected at prespecified time points. Safety evaluations were also assessed. CSF was not collected for PD evaluation during the 2nd Treatment Period. A Follow Up Visit occurred on Day 10 of Treatment Period 2.
In Part C, there was 1 cohort of 8 healthy elderly subjects (65 to 85 years of age) randomly assigned to receive a single dose of Compound A 100 mg or placebo in a ratio of 6:2, respectively.
In Part D, 3 cohorts of healthy adult Japanese subjects were randomized in parallel. There were 7 subjects in each cohort and subjects were randomly assigned to receive single doses of Compound A (25, 100, or 400 mg) or placebo in a ratio of 6:1, respectively.
Blood samples for determination of plasma Compound A concentrations were collected from predose to 216 hours postdose. On Day 1, blood PK samples were collected at predose and postdose 0.5 (30 minutes), 1, 1.5, 2, 3, 4, 5, 6, 8, 12, and 18 hours. Thereafter, samples were collected on Day 2 (24 and 36 hours postdose), Day 3 (48 hours postdose), Day 4 (72 hours postdose), Day 5 (96 hours postdose), Day 6 (120 hours postdose), Day 7 (144 hours postdose), and Day 10 (216 hours postdose).
Blood samples for determination of plasma Compound A concentrations were collected from predose to 216 hours postdose. For all cohorts, blood PK samples were collected on Day 1 at predose and postdose at 0.5 (30 minutes), 1, 1.5, 2, 3, 4, 5, 6, 8, 10, 12, and 18 hours. […]

COc1ncc(C)c(-c2ccc3c(c2)[nH]c(=O)c2cnn([C@H]4CCOC4)c23)c1C [Compound A, (S)-7-(2-methoxy-3,5-dimethylpyridin-4-yl)-1-(tetrahydrofuran-3-yl)-1H-pyrazolo[4,3-c]quin olin-4(5H)-one]
Cmax (oral, 400 mg, non-Japanese, 400 mg, with weight as covariate, read-out: Cmax Geometric LS Means Reference): 833 ng/mL
AUC (oral, 400 mg, non-Japanese, 400 mg, without weight as covariate, read-out: AUC(O-inf) Geometric LS Means Reference): 35800 ng·h/mL
Cmax (oral, 400 mg, non-Japanese, 400 mg, without weight as covariate, read-out: Cmax Geometric LS Means Reference): 827 ng/mL
half-life (oral, single doses of 10 to 1200 mg, read-out: Mean t1/2 across all doses): 26.8 to 33.6 h
Tmax (oral, single doses of 10 to 1200 mg, read-out: median plasma tmax across all doses): 2 to 4 h
AUC(0-t) (po, 10 mg, healthy adults (Parts A,B), single oral 10 mg, fasted, read-out: AUC(0-24 h) GM): 719 ng·h/mL
AUC(0-t) (po, 10 mg, healthy adults (Parts A,B), single oral 10 mg, fasted, read-out: AUC(0-30 h) GM): 863 ng·h/mL
AUC(0-t) (po, 10 mg, healthy adults (Parts A,B), single oral 10 mg, fasted, read-out: AUC(0-72 h) GM): 1430 ng·h/mL
AUC(0-inf) (po, 10 mg, healthy adults (Parts A,B), single oral 10 mg, fasted, read-out: AUC(0-inf) GM): 1840 ng·h/mL
AUC(0-t) (po, 10 mg, healthy adults (Parts A,B), single oral 10 mg, fasted, read-out: AUC(0-t) GM): 1700 ng·h/mL
Cmax (po, 10 mg, healthy adults (Parts A,B), single oral 10 mg, fasted, read-out: Cmax GM): 60.2 ng/mL
Vd/F (po, 10 mg, healthy adults (Parts A,B), single oral 10 mg, fasted, read-out: Vz/F GM): 255 L
half-life (po, 10 mg, healthy adults (Parts A,B), single oral 10 mg, fasted, read-out: t1/2 Mean (converted)): 33.6 h
Tmax (po, 10 mg, healthy adults (Parts A,B), single oral 10 mg, fasted, read-out: tmax Median): 2.27 h
AUC(0-inf) (po, 25 mg, Japanese Subjects (Part D), single oral 25 mg, read-out: AUC(0-inf) GM): 4580 ng·h/mL
Cmax (po, 25 mg, Japanese Subjects (Part D), single oral 25 mg, read-out: Cmax GM (% CV)): 212 ng/mL
Vd/F (po, 25 mg, Japanese Subjects (Part D), single oral 25 mg, read-out: Vz/F GM (% CV)): 165 L
half-life (po, 25 mg, Japanese Subjects (Part D), single oral 25 mg, read-out: t1/2 Mean (SD) (converted)): 21.5 h
Tmax (po, 25 mg, Japanese Subjects (Part D), single oral 25 mg, read-out: tmax Median): 2.08 h
AUC(0-inf) (po, 25 mg, Non-Japanese Subjects (Parts A,B), single oral 25 mg, read-out: AUC(0-inf) GM): 4340 ng·h/mL
Cmax (po, 25 mg, Non-Japanese Subjects (Parts A,B), single oral 25 mg, read-out: Cmax GM (% CV)): 152 ng/mL
Vd/F (po, 25 mg, Non-Japanese Subjects (Parts A,B), single oral 25 mg, read-out: Vz/F GM (% CV)): 216 L
half-life (po, 25 mg, Non-Japanese Subjects (Parts A,B), single oral 25 mg, read-out: t1/2 Mean (SD) (converted)): 26.8 h
Tmax (po, 25 mg, Non-Japanese Subjects (Parts A,B), single oral 25 mg, read-out: tmax Median): 2.65 h
AUC(0-t) (po, 25 mg, healthy adults (Parts A,B), single oral 25 mg, fasted, read-out: AUC(0-24 h) GM): 1850 ng·h/mL
AUC(0-t) (po, 25 mg, healthy adults (Parts A,B), single oral 25 mg, fasted, read-out: AUC(0-30 h) GM): 2200 ng·h/mL
AUC(0-t) (po, 25 mg, healthy adults (Parts A,B), single oral 25 mg, fasted, read-out: AUC(0-72 h) GM): 3570 ng·h/mL
AUC(0-inf) (po, 25 mg, healthy adults (Parts A,B), single oral 25 mg, fasted, read-out: AUC(0-inf) GM): 4340 ng·h/mL
AUC(0-t) (po, 25 mg, healthy adults (Parts A,B), single oral 25 mg, fasted, read-out: AUC(0-t) GM): 4200 ng·h/mL
Cmax (po, 25 mg, healthy adults (Parts A,B), single oral 25 mg, fasted, read-out: Cmax GM): 152 ng/mL
Vd/F (po, 25 mg, healthy adults (Parts A,B), single oral 25 mg, fasted, read-out: Vz/F GM): 216 L
half-life (po, 25 mg, healthy adults (Parts A,B), single oral 25 mg, fasted, read-out: t1/2 Mean (converted)): 26.8 h
Tmax (po, 25 mg, healthy adults (Parts A,B), single oral 25 mg, fasted, read-out: tmax Median): 2.65 h
AUC(0-t) (po, 50 mg, healthy adults (Parts A,B), single oral 50 mg, fasted, read-out: AUC(0-24 h) GM): 3370 ng·h/mL
AUC(0-t) (po, 50 mg, healthy adults (Parts A,B), single oral 50 mg, fasted, read-out: AUC(0-30 h) GM): 4010 ng·h/mL
AUC(0-t) (po, 50 mg, healthy adults (Parts A,B), single oral 50 mg, fasted, read-out: AUC(0-72 h) GM): 6490 ng·h/mL
AUC(0-inf) (po, 50 mg, healthy adults (Parts A,B), single oral 50 mg, fasted, read-out: AUC(0-inf) GM): 7900 ng·h/mL
AUC(0-t) (po, 50 mg, healthy adults (Parts A,B), single oral 50 mg, fasted, read-out: AUC(0-t) GM): 7720 ng·h/mL
Cmax (po, 50 mg, healthy adults (Parts A,B), single oral 50 mg, fasted, read-out: Cmax GM): 225 ng/mL
Vd/F (po, 50 mg, healthy adults (Parts A,B), single oral 50 mg, fasted, read-out: Vz/F GM): 233 L
half-life (po, 50 mg, healthy adults (Parts A,B), single oral 50 mg, fasted, read-out: t1/2 Mean (converted)): 26.9 h
Tmax (po, 50 mg, healthy adults (Parts A,B), single oral 50 mg, fasted, read-out: tmax Median): 4 h
AUC(0-t) (po, 75 mg, healthy adults (Parts A,B), single oral 75 mg, fasted, read-out: AUC(0-24 h) GM): 3650 ng·h/mL
AUC(0-t) (po, 75 mg, healthy adults (Parts A,B), single oral 75 mg, fasted, read-out: AUC(0-30 h) GM): 4460 ng·h/mL
AUC(0-t) (po, 75 mg, healthy adults (Parts A,B), single oral 75 mg, fasted, read-out: AUC(0-72 h) GM): 7880 ng·h/mL
AUC(0-inf) (po, 75 mg, healthy adults (Parts A,B), single oral 75 mg, fasted, read-out: AUC(0-inf) GM): 9880 ng·h/mL
AUC(0-t) (po, 75 mg, healthy adults (Parts A,B), single oral 75 mg, fasted, read-out: AUC(0-t) GM): 9520 ng·h/mL
Cmax (po, 75 mg, healthy adults (Parts A,B), single oral 75 mg, fasted, read-out: Cmax GM): 222 ng/mL
Vd/F (po, 75 mg, healthy adults (Parts A,B), single oral 75 mg, fasted, read-out: Vz/F GM): 308 L
half-life (po, 75 mg, healthy adults (Parts A,B), single oral 75 mg, fasted, read-out: t1/2 Mean (converted)): 28.9 h
Tmax (po, 75 mg, healthy adults (Parts A,B), single oral 75 mg, fasted, read-out: tmax Median): 3 h
AUC(0-inf) (po, 100 mg, Elderly, single oral 100 mg, read-out: AUC(0-inf) Geometric LS Means Test): 21300 ng·h/mL
Cmax (po, 100 mg, Elderly, single oral 100 mg, read-out: Cmax Geometric LS Means Test): 543 ng/mL
AUC(0-inf) (po, 100 mg, Younger Adults (Parts A,B), single oral 100 mg, read-out: AUC(0-inf) Geometric LS Means Reference): 15000 ng·h/mL
Cmax (po, 100 mg, Younger Adults (Parts A,B), single oral 100 mg, read-out: Cmax Geometric LS Means Reference): 373 ng/mL
AUC(0-inf) (po, 100 mg, Japanese Subjects (Part D), single oral 100 mg, read-out: AUC(0-inf) GM): 14200 ng·h/mL
